# From patent US9782397B2, “Treatment of corneal neovascularization” (IRBM SCIENCE PARK S.P.A., priority 2011, dated 2017)
# Entries after “also recorded” stand apart in the source; their conditions may differ. Ends that are not written are not given here.
# Experiments:
# [1] = tested on: corneal neovascularization; test: Alkali burn (sodium hydroxide caustication) neovascularization model; format: in vivo, C57Bl/6 mice; settings: for corneal perforation / corneal transparency / incidence of symblepharon and ankyloblepharon / lid anatomy: topical treatment of ocular burns, Examples 4-6
# Experimental: Prior to pellet implantation or caustication, animals were anesthetized by intraperitoneal injection of ketamine (120 mg/kg) and xylazine (20 mg/kg) before any surgery.
# In fact, the Alkali burn model is considered an inflammation-driven model of neovascularisation, whereby a reduction in inflammatory cell influx is associated with clinical improvement.
# Mice were anesthetized by intraperitoneal injection of ketamine (120 mg/kg) and xylazine (20 mg/kg) before any surgery. A 2-mm disc of filter paper saturated with 1 N NaOH was placed onto the right cornea of each mouse for 40 seconds, followed by rinsing extensively with phosphate-buffered saline (PBS) for 2 minutes.
# (§1) After taking photographs under the slit lamp, five mice per group were sacrificed 7 days after b-FGF micropellet implantation or caustication, and freshly enucleated eyes were prepared into corneal flat mounts. Immunohistochemical staining was performed with FITC-conjugated CD31/PECAM-1 (rat-anti-mouse antibody; 1:100; Santa Cruz Biotechnology, Santa Cruz, Calif.). Images were taken at 40×, 400× and 600× magnification. To quantify the blood vessels, corneal whole-mounts were covered with mounting medium (Vector, Burlingame, Calif.) and examined by an epifluorescent microscope. For toxicity studies, mice were examined at the slit lamp daily. Animals were sacrificed seven days later and eye bulbs were removed, fixed in 4% paraformaldehyde, cross-sectioned and stained with standard hematoxylin-eosin. At least three to five different corneas were examined; representative data are presented.
# (§2) Both slit-lamp and fluorescence microscopy pictures were qualitatively compared for the amount of corneal neovascularization. Gross anatomical alterations such as disruption of epithelial layer, inflammatory cell infiltration, or endothelial cell loss were searched in hematoxylin-eosin cross sections.
# Male 6- to 8-week-old C57Bl/6 mice were treated to induce neovascularization using sodium hydroxide caustication (see Experimental Methods)
# 5 mice per group were used. After taking photographs at the slit lamp, mice were sacrificed. Immunohistochemical staining was performed with FITC-conjugated CD31/PECAM-1 to reveal corneal neovessels.
# Lanepitant (WO9907681) was dissolved in PBS. It was administered topically to the eye with the following dose regimen after alkali burn induced neovascularization of the cornea: • 0.4 mg/ml, 6 times a day for 4 days, starting on the day of the tissue injury (“Day 0” to “Day 3”). • 1.6 mg/ml, 6 times a day for 4 days, starting on the day of the tissue injury (“Day 0” to “Day 3”). • 6.4 mg/ml, 6 times a day for 4 days, starting on the day of the tissue injury (“Day 0” to “Day 3”). • PBS Control, 6 times a day for 4 days, starting on the day of the tissue injury (“Day 0” to “Day 3”).
# Three mice (for a total of 6 eyes) were treated in each experimental group.
# On Day 4, After taking photographs at the slit lamp, mice were sacrificed. Immunohistochemical staining was performed with FITC-conjugated CD31/PECAM-1 to reveal corneal neovessels (FIG. 4A). Following alkali burn, neovessels are expected to grow from the periphery towards the center of the cornea. The extent of the neovascularization is then evaluated. Briefly, corneas were excised, fixed and stained with FITC-conjugated CD31/PECAM-1 to reveal corneal neovessels. […] The neovascular area was then calculated by measuring the Neovascular Area Index (NV Index). This was obtained by calculating the ratio of the neovascular area—obtained by joining together the inner tip of the neovessels—and the total surface of the cornea (i.e. the total area of the cornea).
# Befetupitant (WO020008232) was dissolved in DMSO (Dimethyl SulfOxyde).
# [2] = tested on: corneal neovascularization; test: as above; format: in vivo, C57Bl/6 mice
# CNV [3] = settings: humans, topical administration; cited from earlier work
# [4] = tested on: corneal neovascularization; test: b-FGF pellet implantation angiogenesis model (mouse corneal micropocket); format: in vivo, C57Bl/6 mice; settings: 1 mg/ml topical, 4 times per day for 1 week
# Experimental: Male 6- to 8-week-old C57Bl/6 mice (Taconic Farms, Germantown, N.Y.) were used in experiments for Examples 1 to 3. Male 6- to 8-week-old C57Bl/6 mice (Charles River Lab, Calco, Milan, Italy) were used in experiments for Examples 4-6. Prior to pellet implantation or caustication, animals were anesthetized by intraperitoneal injection of ketamine (120 mg/kg) and xylazine (20 mg/kg) before any surgery.
# b-FGF Pellet Implantation Angiogenesis Model
# This model was employed to assess the effect of pharmaceutically active substances on the angiogenesis component of CNV.
# Sustained release b-FGF micropellets (40 ng/pellet) were prepared as described in Azar D T, Am Ophthalmol Soc 2006; 104:264-302.
# Briefly, the pellets were implanted through half thickness linear incisions at the center of cornea using a disposable 30 degrees microknife (F.S.T., Foster City, Calif., USA). Lamellar pocket incisions were then made parallel to the corneal plane using a Von Graefe knife (F.S.T., Foster City, Calif., USA) and advanced to the temporal limbus at lateral canthal area. The pellets were positioned into the pocket 1.0 mm apart from the limbal vascular arcade in temporal side, and tetracycline ophthalmic ointment was applied to the eye after pellet implantation to prevent post surgical infections.
# as §1
# as §2, with “sections. […]” for “sections.”
# Following b-FGF pellet implantation, neovessels are expected to grow from the limbal vessels (i.e. from the periphery of the cornea), towards the pellet, which is placed in the avascular cornea. The extent of neovascularisation is then evaluated.
# healthy cornea = test: Toxicity following topical application in healthy eyes; format: in vivo, C57Bl/6 mice
# Experimental: as §1, §2
# Fosaprepitant toxicity was tested on the healthy cornea by administering to 3 healthy C57Bl/6 mice fosaprepitant (purchased from Universal Drug Store, Canada and diluted as per technical sheet instructions with 0.9% NaCl solution to reach a final concentration of 1 mg/ml) at the concentration of 1 mg/ml in the conjunctival sac 4 times per day for 1 week. In vivo corneal biomicroscopy imaging and hematoxylin eosin ocular cross sections were checked as markers for toxicity.
# [5] = tested on: growth of capillary vessels; settings: slow release pellets in avascular cornea of rabbits; cited from earlier work
# endothelial cells = settings: in vitro; cited from earlier work
# CNV [6] = settings: in vivo; cited from earlier work
# [7] = increasing dose 0.4, 1.6, 6.4 mg/ml topical, 6 times a day for 4 days, Day 4
# [8] = 1 mg/ml topical, 4 times per day for 1 week, versus placebo
compound,measurement,setting,value
COc1ccccc1CN(C[C@@H](Cc1c[nH]c2ccccc12)NC(=O)CN1CCC(N2CCCCC2)CC1)C(C)=O [lanepitant],Neovascular Area Index (NV Index),"[1]; 6.4 mg/ml topical, 6 times a day for 4 days, compared to vehicle",statistically significant reduction
same,anatomy of the eyelids,"[1]; 0.4, 1.6, 6.4 mg/ml topical, 6 times a day for 4 days, Day 4, versus vehicle",appeared better preserved
same,corneal transparence,"[1]; increasing dose 0.4, 1.6, 6.4 mg/ml topical, 6 times a day for 4 days from day of injury, Day 4, versus vehicle (PBS)",increased corneal transparence
same,Neovascular Area Index (NV Index),[1]; [7],progressively reduced
same,corneal neovessels (CD31/PECAM-1),[1]; [7],progressively reduced; also recorded: reduces corneal neovascularization
same,effect on neovascularization compared to the same dose administered after the tissue injury,[1]; pre-treatment 1.6 mg/ml versus 1.6 mg/ml started on day of injury,increased effect
same,corneal perforation,[1],reduced
same,corneal transparency,[1],increased
same,incidence of symblepharon and ankyloblepharon,[1],reduced
same,lid anatomy,[1],appeared better preserved
same,Cornea Neovascular Index,"[2]; pre-treatment: 1.6 mg/ml topical, 6 times a day from before the injury through Day 3, day 4",statistically significant reduction
same,corneal neovascularization,"[2]; pre-treatment: 1.6 mg/ml topical, 6 times a day from before the injury through Day 3, day 4, versus vehicle",appeared reduced; also recorded: reduces corneal neovascularization
bevacizumab: anti-VEGF monoclonal antibody,inhibiting CNV,CNV [3],some effect
"C[C@@H](O[C@H]1OCCN(Cc2nc(O)n(P(=O)(O)O)n2)[C@H]1c1ccc(F)cc1)c1cc(C(F)(F)F)cc(C(F)(F)F)c1 [fosaprepitant, [3-{[(2R,3S)-2-[(1R)-1-[3,5-bis(trifluoromethyl)phenyl]ethoxy]-3-(4-fluorophenyl)morpholin-4-yl]methyl}-5-oxo-2H-1,2,4-triazol-1-yl]phosphonic acid]",length of the vessels,"[4]; slit lamp, 7 days after implantation",appeared reduced
same,area of normally avascular cornea invaded by neovessels,[4]; versus placebo,smaller
same,density of vascular ramifications (number of vascular branches per surface unit),[4]; versus placebo,reduced
same,"corneal neovascularization (slit lamp, CD31/PECAM-1 whole mounts)","[4]; conjunctival sac, 7 days after implantation, versus placebo (PBS)",less neovascularization; also recorded: reduces corneal neovascularization
same,area of normally avascular cornea invaded by neovessels,[1]; [8],smaller
same,"alteration of corneal epithelium, stroma or endothelium at slit lamp observation","healthy cornea; 1 mg/ml topical, 4 times per day, up to 7 days, healthy corneas",No alteration
same,"hematoxylin-eosin staining of eyeball cross-sections (epithelium, stroma, endothelium)","healthy cornea; 1 mg/ml topical, 4 times per day, 7 days",no anatomical alteration was detected
same,toxicity to the cornea,healthy cornea; topical application (FIG. 3),not toxic
same,"corneal neovascularization (slit lamp, epifluorescent microscopy)","[2]; 1 mg/ml topical, 4 times per day for 1 week, 7 days after caustication, versus placebo (PBS)",remarkably reduced; also recorded: reduces corneal neovascularization
same,density of vascular ramifications (number of vascular branches per surface unit),[2]; [8],reduced
same,corneal transparency,"[2]; 1 mg/ml topical, 4 times per day for 1 week, versus placebo-treated corneas",much improved
"Substance P: C-amidated decapeptide of the tachykinin family; principal receptor NK-1 (RPKPQQFFGLM-NH2; UniProt P20366 58-68, looked up)",vessel growth in the cornea,[5],induced a marked neovascularization
same,proliferation of endothelial cells,endothelial cells,increased proliferation
Cc1ccccc1-c1cc(N2CCOCC2)ncc1N(C)C(=O)C(C)(C)c1cc(C(F)(F)F)cc(C(F)(F)F)c1 [befetupitant],Corneal Neovascular Index,"[1]; 0.4 mg/ml topical, 3 times a day for 9 days, compared to vehicle (DMSO)",statistically significant reduction
same,corneal perforation,[1],reduced
same,corneal transparency,[1],increased
same,incidence of symblepharon and ankyloblepharon,[1],reduced
same,lid anatomy,[1],appeared better preserved
same,Corneal Neovascular Index,"[2]; 1.6 mg/ml topical, 3 times a day for 9 days, compared to vehicle (DMSO)",statistically significant reduction
same,corneal neovessels (CD31/PECAM-1),"[2]; increasing doses 0.4, 1.6 mg/ml in DMSO, topical, 3 times a day for 9 days, day 9",reduced; also recorded: reduces corneal neovascularization
CC(=O)OCC(=O)[C@@]1(O)CC[C@H]2[C@@H]3CCC4=CC(=O)CC[C@]4(C)C3=CC[C@@]21C [anecortave acetate],efficacy in animal models of CNV,CNV [6],effective
